Measured values taken from PubChem BioAssay AID200 (DTP/NCI, 2004).
Several values for one entry are separate records, joined by “and”; a condition that tells them apart may be missing. Identical values can stand only once. Inconclusive results and toxic doses are left out.

Test system: B6C3F1 mice, B16 melanoma ip, median survival T/C
Experiment: NCI In Vivo Anticancer Drug Screen. Data for tumor model B16 Melanoma (intraperitoneal) in B6C3F1 mice
Conditions: endpoint: median survival time, higher = longer survival
How it was run: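 Values are T/C ratios: the measurement in treated animals divided by that in vehicle-treated controls, using survival or tumor size in mice carrying transplantable tumors.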

[1] = dose: 6.25 mg/kg/injection, schedule: Q01DX009 (ip), vehicle: Klucel (hydroxypropylcellulose) (HPC)
[2] = dose: 6.25 mg/kg/injection, schedule: Q01DX009 (ip), vehicle: saline with Tween-80
[3] = dose: 12.5 mg/kg/injection, schedule: Q01DX009 (ip), vehicle: Klucel (hydroxypropylcellulose) (HPC)
[4] = dose: 12.5 mg/kg/injection, schedule: Q01DX009 (ip), vehicle: saline with Tween-80
[5] = dose: 25.0 mg/kg/injection, schedule: Q01DX009 (ip), vehicle: Klucel (hydroxypropylcellulose) (HPC)
[6] = dose: 25.0 mg/kg/injection, schedule: Q01DX009 (ip), vehicle: saline with Tween-80
[7] = dose: 50.0 mg/kg/injection, schedule: Q01DX009 (ip), vehicle: Klucel (hydroxypropylcellulose) (HPC)
[8] = dose: 50.0 mg/kg/injection, schedule: Q01DX009 (ip), vehicle: saline with Tween-80
[9] = dose: 100.0 mg/kg/injection, schedule: Q01DX009 (ip), vehicle: Klucel (hydroxypropylcellulose) (HPC)
[10] = dose: 100.0 mg/kg/injection, schedule: Q01DX009 (ip), vehicle: saline with Tween-80
[11] = dose: 200.0 mg/kg/injection, schedule: Q01DX009 (ip), vehicle: saline with Tween-80
[12] = dose: 400.0 mg/kg/injection, schedule: Q01DX009 (ip), vehicle: saline with Tween-80
[13] = dose: 12.5 mg/kg/injection, schedule: Q01DX009 (ip), vehicle: saline
[14] = dose: 25.0 mg/kg/injection, schedule: Q01DX009 (ip), vehicle: saline
[15] = dose: 50.0 mg/kg/injection, schedule: Q01DX009 (ip), vehicle: saline
[16] = dose: 100.0 mg/kg/injection, schedule: Q01DX009 (ip), vehicle: saline
[17] = dose: 200.0 mg/kg/injection, schedule: Q01DX009 (ip), vehicle: saline
[18] = dose: 6.25 mg/kg/injection, schedule: Q01DX009 (ip), vehicle: other
[19] = dose: 12.5 mg/kg/injection, schedule: Q01DX009 (ip), vehicle: other
[20] = dose: 25.0 mg/kg/injection, schedule: Q01DX009 (ip), vehicle: other
[21] = dose: 1.5 mg/kg/injection, schedule: Q01DX009 (ip), vehicle: Klucel (hydroxypropylcellulose) (HPC)

SMILES: Nc1ccc(S(=O)(=O)c2ccc(N)cc2)cc1
- T/C [1]: 95 % of control
- T/C [2]: 103 % of control
- T/C [3]: 106 % of control
- T/C [4]: 93 % of control
- T/C [5]: 96 % of control
- T/C [6]: 101 % of control
- T/C [7]: 92 % of control
- T/C [8]: 93 % of control and 100 % of control
- T/C [9]: 90 % of control
- T/C [10]: 87 % of control and 98 % of control
- T/C [11]: 88 % of control
- T/C [12]: 86 % of control

SMILES: C=CCOCC1CO1 (centres undefined)
- T/C [13]: 98 % of control and 99 % of control
- T/C [14]: 111 % of control and 101 % of control
- T/C [15]: 92 % of control and 103 % of control
- T/C [16]: 111 % of control and 104 % of control
- T/C [17]: 111 % of control and 99 % of control

SMILES: CC(=O)Nc1c2sscc-2n(C)c1=O
- T/C (dose: 0.19 mg/kg/injection, schedule: Q01DX009 (ip), vehicle: saline): 105 % of control
- T/C (dose: 0.39 mg/kg/injection, schedule: Q01DX009 (ip), vehicle: saline): 93 % of control
- T/C (dose: 0.78 mg/kg/injection, schedule: Q01DX009 (ip), vehicle: saline): 94 % of control

SMILES: O=CC(S)CO (centres undefined)
- T/C [13]: 107 % of control
- T/C [14]: 111 % of control
- T/C [15]: 123 % of control

SMILES: O=C(Nc1cc(Cl)ccc1C(=O)O)c1cccc(C[n+]2ccccc2)c1
- T/C [6]: 101 % of control
- T/C [8]: 94 % of control
- T/C [10]: 94 % of control

SMILES: O=C1c2ccccc2-c2c(Br)c3ccccc3c(=O)n21
- T/C [8]: 90 % of control
- T/C [10]: 101 % of control
- T/C [11]: 95 % of control
- T/C [12]: 94 % of control

SMILES: CN1c2ccc3ccccc3c2Sc2ccc3ccccc3c21
- T/C [16]: 100 % of control
- T/C [17]: 100 % of control
- T/C (dose: 400.0 mg/kg/injection, schedule: Q01DX009 (ip), vehicle: saline): 118 % of control

SMILES: Cc1cc(Cc2cc(C)c(C)c(C)c2C)c(C)c(C)c1C
- T/C (dose: 0.78 mg/kg/injection, schedule: Q01DX009 (ip), vehicle: saline with Tween-80): 89 % of control
- T/C (dose: 1.56 mg/kg/injection, schedule: Q01DX009 (ip), vehicle: saline with Tween-80): 91 % of control
- T/C (dose: 3.13 mg/kg/injection, schedule: Q01DX009 (ip), vehicle: saline with Tween-80): 100 % of control
- T/C [2]: 106 % of control

SMILES: CC1OC(=O)C(C(C)C)NC(=O)C(C(C)C)OC(=O)C(C(C)C)NC(=O)C(C)OC(=O)C(C(C)C)NC(=O)C(C(C)C)OC(=O)C(C(C)C)NC(=O)C(C)OC(=O)C(C(C)C)NC(=O)C(C(C)C)OC(=O)C(C(C)C)NC1=O (centres undefined)
- T/C (dose: 0.75 mg/kg/injection, schedule: Q01DX009 (oral), vehicle: Klucel (hydroxypropylcellulose) (HPC)): 104 % of control
- T/C (dose: 1.5 mg/kg/injection, schedule: Q01DX009 (oral), vehicle: Klucel (hydroxypropylcellulose) (HPC)): 104 % of control
- T/C (dose: 3.0 mg/kg/injection, schedule: Q01DX009 (oral), vehicle: Klucel (hydroxypropylcellulose) (HPC)): 105 % of control
- T/C (dose: 6.0 mg/kg/injection, schedule: Q01DX009 (oral), vehicle: Klucel (hydroxypropylcellulose) (HPC)): 100 % of control
- T/C (dose: 12.0 mg/kg/injection, schedule: Q01DX009 (oral), vehicle: Klucel (hydroxypropylcellulose) (HPC)): 105 % of control
- T/C (dose: 24.0 mg/kg/injection, schedule: Q01DX009 (oral), vehicle: Klucel (hydroxypropylcellulose) (HPC)): 104 % of control

SMILES: COc1cc2c[n+](C)c3c(c2cc1OC)Cc1cc2c(cc1-3)OCO2
- T/C [4]: 120 % of control
- T/C (dose: 12.5 mg/kg/injection, schedule: Q01DX009 (ip), vehicle: suspension in saline): 111 % of control
- T/C (dose: 25.0 mg/kg/injection, schedule: Q01DX009 (ip), vehicle: suspension in saline): 111 % of control
- T/C (dose: 50.0 mg/kg/injection, schedule: Q01DX009 (ip), vehicle: suspension in saline): 110 % of control

SMILES: CC(=O)C[n+]1ccc(C)cc1Sc1ccccc1C
- T/C [4]: 97 % of control
- T/C [6]: 97 % of control
- T/C [8]: 96 % of control
- T/C [10]: 100 % of control
- T/C [11]: 101 % of control

SMILES: CN(C(=S)S(=O)(=O)C12CC3CC(CC(C3)C1)C2)c1ccccc1
- T/C (dose: 1.56 mg/kg/injection, schedule: Q01DX009 (ip), vehicle: Klucel (hydroxypropylcellulose) (HPC)): 104 % of control
- T/C (dose: 3.12 mg/kg/injection, schedule: Q01DX009 (ip), vehicle: Klucel (hydroxypropylcellulose) (HPC)): 98 % of control
- T/C [1]: 104 % of control
- T/C [3]: 101 % of control
- T/C [5]: 114 % of control
- T/C [7]: 104 % of control

SMILES: CC1(C)OCC2OC=CC(=O)C2O1 (centres undefined)
- T/C [6]: 102 % of control
- T/C [8]: 100 % of control
- T/C [10]: 97 % of control
- T/C [11]: 105 % of control
- T/C [12]: 95 % of control

SMILES: Cc1ccc2c(c1)Sc1ccc(N=NN(C)C)cc1N2C
- T/C [18]: 100 % of control
- T/C [19]: 114 % of control
- T/C [20]: 114 % of control
- T/C (dose: 50.0 mg/kg/injection, schedule: Q01DX009 (ip), vehicle: other): 115 % of control

SMILES: CCC(C)C(NC(=O)OCC1c2ccccc2-c2ccccc21)C(=O)O (centres undefined)
- T/C [9]: 101 % of control and 102 % of control
- T/C (dose: 200.0 mg/kg/injection, schedule: Q01DX009 (ip), vehicle: Klucel (hydroxypropylcellulose) (HPC)): 98 % of control and 100 % of control

SMILES: CCCn1cc2c3c(cccc31)C1C=C(C)CN(C)C1C2 (centres undefined)
- T/C [18]: 118 % of control
- T/C [19]: 306 % of control
- T/C [20]: 91 % of control

SMILES: C=CC1(C)CCC2C(=CCC3C2(C)CC(O)C(O)C3(C)COC2OC(CO)C(O)C(O)C2O)C1 (centres undefined)
- T/C [21]: 116 % of control
- T/C (dose: 3.0 mg/kg/injection, schedule: Q01DX009 (ip), vehicle: Klucel (hydroxypropylcellulose) (HPC)): 103 % of control
- T/C (dose: 6.0 mg/kg/injection, schedule: Q01DX009 (ip), vehicle: Klucel (hydroxypropylcellulose) (HPC)): 113 % of control
- T/C (dose: 12.0 mg/kg/injection, schedule: Q01DX009 (ip), vehicle: Klucel (hydroxypropylcellulose) (HPC)): 107 % of control
- T/C (dose: 24.0 mg/kg/injection, schedule: Q01DX009 (ip), vehicle: Klucel (hydroxypropylcellulose) (HPC)): 108 % of control

SMILES: Cc1cc(Nc2ccc3c(c2)OCO3)c2cc3c(cc2n1)OCO3
- T/C [5]: 105 % of control
- T/C [7]: 101 % of control

SMILES: C[C@H](N)C(=O)N[C@@H]1[C@H]2C(=C(O)C[C@@H](O)[C@@H]2O)C(=O)O[C@]1(C)C(Cl)Cl
- T/C (dose: 0.18 mg/kg/injection, schedule: Q01DX009 (ip), vehicle: Klucel (hydroxypropylcellulose) (HPC)): 95 % of control
- T/C (dose: 0.19 mg/kg/injection, schedule: Q01DX009 (ip), vehicle: Klucel (hydroxypropylcellulose) (HPC)): 100 % of control
- T/C (dose: 0.37 mg/kg/injection, schedule: Q01DX009 (ip), vehicle: Klucel (hydroxypropylcellulose) (HPC)): 101 % of control and 107 % of control
- T/C (dose: 0.38 mg/kg/injection, schedule: Q01DX009 (ip), vehicle: Klucel (hydroxypropylcellulose) (HPC)): 105 % of control
- T/C (dose: 0.75 mg/kg/injection, schedule: Q01DX009 (ip), vehicle: Klucel (hydroxypropylcellulose) (HPC)): 116 % of control and 104 % of control (2×)
- T/C [21]: 112 % of control and 113 % of control and 118 % of control

SMILES: Clc1ccc(CN2COc3c(ccc4cccnc34)C2)cc1Cl
- T/C [4]: 102 % of control
- T/C [6]: 109 % of control
- T/C [8]: 92 % of control

SMILES: CO[C@@]12[C@@H]3N[C@@H]3CN1C1=C(C(=O)C(NCc3ccco3)=C(C)C1=O)[C@@H]2COC(N)=O
- T/C (dose: 4.5 mg/kg/injection, schedule: Q01DX001 (ip), vehicle: distilled water + Tween-80): 170 % of control
- T/C (dose: 9.0 mg/kg/injection, schedule: Q01DX001 (ip), vehicle: distilled water + Tween-80): 186 % of control
- T/C (dose: 18.0 mg/kg/injection, schedule: Q01DX001 (ip), vehicle: distilled water + Tween-80): 219 % of control
- T/C (dose: 36.0 mg/kg/injection, schedule: Q01DX001 (ip), vehicle: distilled water + Tween-80): 247 % of control

SMILES: COC(=O)[C@@]12OC[C@]34[C@H]([C@@H](O)[C@@H]1O)[C@@]1(C)CC(=O)C(O)=C(C)[C@@H]1C[C@H]3OC(=O)[C@H](OC(=O)/C=C(\C)C1(C)CO1)[C@@H]24 (some centres undefined)
- T/C (dose: 0.01 mg/kg/injection, schedule: Q01DX009 (ip), vehicle: saline + alcohol): 108 % of control
- T/C (dose: 0.03 mg/kg/injection, schedule: Q01DX009 (ip), vehicle: saline + alcohol): 116 % of control

SMILES: O=C(/C=C(\Cl)C(=O)NO)NO
- T/C (dose: 6.25 mg/kg/injection, schedule: Q01DX009 (ip), vehicle: saline): 100 % of control and 105 % of control
- T/C [13]: 91 % of control and 100 % of control
- T/C [14]: 97 % of control and 104 % of control
- T/C [15]: 108 % of control
- T/C [16]: 91 % of control
